In PubChem BioAssay AID1645868 (Buhrlage Lab, Dana-Farber Cancer Institute and Novartis …, 2021):
pIC50: −log10 of the molar value. Activity calls are given as the source filed them.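 How the source made its calls: active means maximal percent inhibition of the deubiquitinase OTUD3 of at least 30% across the tested doses; inactive means the rest.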

Molecular target: OTU domain-containing protein 3 (Homo sapiens) (UniProt Q5T2D3)
Experiment: Validation of screening hits, potency titration, in vitro enzymatic, OTU domain-containing protein 3 DUB inhibitors (AID 1645868)
Conditions: purified OTUD3, ubiquitin-rhodamine cleavage fluorescence, 2 h

Chain of OTU domain-containing protein 3 (Homo sapiens) (Q5T2D3 whole entry, looked up, the tested form may be a part): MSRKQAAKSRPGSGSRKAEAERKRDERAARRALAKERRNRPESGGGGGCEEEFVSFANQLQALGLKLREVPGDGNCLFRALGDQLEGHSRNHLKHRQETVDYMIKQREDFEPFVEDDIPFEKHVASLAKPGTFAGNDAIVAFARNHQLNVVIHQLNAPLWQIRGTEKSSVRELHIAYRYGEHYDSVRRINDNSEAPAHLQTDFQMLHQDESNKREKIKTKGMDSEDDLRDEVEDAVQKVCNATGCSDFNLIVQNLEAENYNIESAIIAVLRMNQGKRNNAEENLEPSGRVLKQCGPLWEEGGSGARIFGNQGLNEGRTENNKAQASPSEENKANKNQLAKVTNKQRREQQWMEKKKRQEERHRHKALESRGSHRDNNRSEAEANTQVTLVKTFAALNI

SMILES	IC50	pIC50
CN(C)Cc1ccc(C(=O)Nc2ccc(-c3nccs3)cc2)cc1	> 50 µM (inactive)	–
CCS(=O)(=O)c1ccccc1C(=O)Nc1ccc2sc(C)nc2c1	> 50 µM (inactive)	–
CC1CCCCN1CCCNC(=O)c1ccc(N2CCc3ccccc32)s1 (stereo not given)	> 50 µM (inactive)	–
COc1ccc(-c2cc(-c3ccc(O)cc3)nc(N)c2C#N)cc1OC	> 50 µM (inactive)	–
Cc1ccc(C(C)C)cc1OCCOCCN1CCNCC1	> 50 µM (inactive)	–
N#C/C(=C\c1ccc(-c2cc(Cl)ccc2Cl)o1)c1nnc2n1CCCCC2	> 50 µM (inactive)	–
COc1c(Cl)ccc2c(=O)c3c(O)c4c5c(c3oc12)OCO[C@H]5[C@@H](OC)c1cc2c(c(O)c1-4)C(=O)N(C)[C@H](OC)[C@@H]2O	> 50 µM (inactive)	–
O=S1(=O)CCN(Cc2cccnc2)c2c(F)nc(N3CCOCC3)c(F)c21	> 50 µM (inactive)	–
CC(c1ccccc1)n1c(-c2ccc(F)cc2)nc2c(c(=O)c3ccccc3n2C)c1=O (stereo not given)	–	5.33
CCc1ccc(OCc2nnc(SCC(=O)Nc3ccccc3OC)n2Cc2ccccc2)cc1	> 50 µM (inactive)	–
CCCC(O)CCCCCCCc1cc(O)cc(O)c1C(=O)OC(CCC)CCCCCCCc1cc(O)cc(O)c1 (stereo not given)	–	4.44
O=C1CN(C(=O)COC(=O)CCCN2C(=O)c3cccc4cccc(c34)C2=O)c2ccccc2N1	> 50 µM (inactive)	–
O=C(/C=C/c1ccccc1)N1CCN(C2=NS(=O)(=O)c3ccccc32)CC1	> 50 µM (inactive)	–
O=C(CSc1ccc(-c2cccc([N+](=O)[O-])c2)nn1)Nc1cccc(F)c1	–	4.60
C[C@@]12c3ccc4c(c3C(=O)c3occ(c31)C(O)C[C@H]2O)CCC4=O (stereo not given in full)	> 50 µM (inactive)	–
CC(C)(C)c1ccc(Cn2nnc3c(=O)[nH]c(C4CCN(S(=O)(=O)c5ccc(S(=O)(=O)NC6CC6)cc5)CC4)nc32)cc1	> 50 µM (inactive)	–
COc1ccc(NC(=O)c2nnn(-c3ccccc3C)c2C)cc1OC	> 50 µM (inactive)	–
COC(=O)c1sccc1NC(=O)COc1ccsc1C(=O)OC	> 50 µM (inactive)	–
Cc1c(-c2nnc(-c3ccccc3Cl)o2)nnn1-c1ccccc1	> 50 µM (inactive)	–
COCC(C)Nc1ncc(-c2cnccn2)c(-c2ccc(C)s2)n1 (stereo not given)	> 50 µM (inactive)	–
Cc1ccc2nc(NC(=O)CSc3nnc(-c4ccncc4)n3C3CC3)sc2c1	> 50 µM (inactive)	–

SMILES	IC50	pIC50
COCCNC(=O)c1cc(-c2cn(-c3ccccn3)c(C)n2)n2ccccc12	> 50 µM (inactive)	–
CC1=CN2C(=N)/C(=C/c3cn(Cc4ccc(Cl)cc4)c4ccccc34)C(=O)N=C2S1	> 50 µM (inactive)	–
N#Cc1cccnc1N1CCN(C(=O)Nc2cccc3ccccc23)CC1	> 50 µM (inactive)	–
FC(F)(F)c1cccc(N2CCN(c3nc4ccccc4n4nnnc34)CC2)c1	> 50 µM (inactive)	–
O=C(COC(=O)c1cc(Cl)ccc1O)Nc1ccc2c(c1)OCCO2	–	4.43
CCCC(=O)N1CCC2(CC1)Nc1ccccc1NC2=O	> 50 µM (inactive)	–
O=C(OCCCN1C(=O)c2cccc3c(N4CCCCC4)ccc(c23)C1=O)c1ccccn1	> 50 µM (inactive)	–
Cc1ccc(S(=O)(=O)N2CCC3(CC2)NC(=O)c2ccccc2N3)cc1C	> 50 µM (inactive)	–
CCCc1nc2sc3c(NC4CCCCC4)ncnc3c2c2c1CCC2	> 50 µM (inactive)	–
O=C(O)CCCCCN1C(=O)CC(c2ccc(Cl)cc2)CC1=O	–	4.33
Cc1ccc(-n2c(-c3ccccc3)cn3c4c(=O)[nH]c(=O)n(C)c4nc23)cc1C	–	5.70
O=C1CC(c2cc3c(cc2Br)OCO3)c2cc3c(cc2N1)OCCO3 (stereo not given)	–	4.73
CCn1cc(NC(=O)CN2CCC3(CC=CCOC3)CC2)c(C)n1	> 50 µM (inactive)	–
Cc1cc(C)cc(NC(=O)CN2C(=O)CC(c3ccccc3)Sc3ccccc32)c1 (stereo not given)	> 50 µM (inactive)	–
O=C(CSc1ccc2nnc(-c3ccccc3)n2n1)N1CCCc2ccccc21	–	4.82
Cc1ccc(-n2c(=O)c3ccccc3n(Cc3c(F)cccc3Cl)c2=O)cc1	> 50 µM (inactive)	–
O=C(/C=C/c1ccc(F)cc1)N1CCc2ccccc2C1	> 50 µM (inactive)	–
CO[C@H]1[C@@H](O)[C@H](C)O[C@H](O[C@H]2[C@H](Oc3cccc4c(O)c5c(=O)oc6ccc(C)c7c(=O)oc(c34)c5c67)O[C@H](C)[C@H](O)[C@@H]2O)[C@@H]1O	> 50 µM (inactive)	–
CCCn1cc(C(=O)N2CCC3(CC2)CC2(CO3)Nc3ccccc3-n3cccc32)c(C)n1 (stereo not given)	> 50 µM (inactive)	–
Cc1ccccc1Cn1ccc2ccn(Cc3cccnc3)c2c1=O	> 50 µM (inactive)	–
O=C(Cn1c(=O)nc(-c2ccccc2)c2ccccc21)NCc1ccc2c(c1)OCO2	–	4.65

SMILES	IC50	pIC50
O=C(OC1CSc2nc3ccccc3n2C1)c1ccc([N+](=O)[O-])o1 (stereo not given)	–	4.59
O=S(=O)(c1ccc2c(c1)OCCO2)N(Cc1ccccc1)Cc1nnc(-c2ccccc2)o1	> 50 µM (inactive)	–
COc1ccc(-c2nnc(SCc3ccccc3C#N)o2)c(OC)c1	> 50 µM (inactive)	–
CCC(C(=O)NCc1ccncc1)N(c1cccc(Cl)c1)S(C)(=O)=O (stereo not given)	> 50 µM (inactive)	–
O=C(Cn1nc2ccc(C(=O)NCc3ccccc3)cn2c1=O)Nc1ccc2c(c1)OCO2	–	4.42
CCOC(=O)C1C(c2ccc(Br)cc2)C2(C(=O)c3ccccc3C2=O)C2C=Cc3ccccc3N12 (stereo not given)	> 50 µM (inactive)	–
COc1ccc(CCNC(=O)CCCn2c(=O)c3ccccc3n(CC(=O)OCc3ccccc3)c2=O)cc1OC	–	4.66
Cc1cc(C)c(NC(=O)CSc2nc3nccnc3c(=O)n2Cc2ccccc2Cl)c(C)c1	> 50 µM (inactive)	–
c1ccc2c(Cc3nc(-c4ccncc4)no3)cccc2c1	> 50 µM (inactive)	–
CN(C(=O)CSc1nnc(-c2cc3ccccc3n2C)o1)c1ccccc1	> 50 µM (inactive)	–
O=C(COc1cccc2ccc(N3CCC(Cc4ccccc4)CC3)nc12)NCc1ccc(F)cc1	–	4.52
O=C(CCCCn1c(=O)c2ccccc2n(CC(=O)Nc2ccc(F)c(Cl)c2)c1=O)NCc1ccco1	> 50 µM (inactive)	–
CC(C)(C)c1ccc(-c2nnc3n2-c2ccccc2SC3)cc1	> 50 µM (inactive)	–
O=C(COc1nsnc1N1CCOCC1)Nc1ccc(F)c(F)c1	> 50 µM (inactive)	–
O=C(Nc1cccc2ccccc12)N1CCC(c2nc3c(nnn3Cc3ccc(F)cc3)c(=O)[nH]2)CC1	> 50 µM (inactive)	–
Nc1ccccc1SCc1noc(-c2cccs2)n1	> 50 µM (inactive)	–
C=C(NC(=O)C(=C)NC(=O)c1csc(C2=N[C@@H]3c4csc(n4)[C@H]4NC(=O)c5csc(n5)[C@H]([C@](C)(O)[C@@H](C)O)NC(=O)[C@H]5CSC(=N5)/C(=C/C)NC(=O)C([C@@H](C)O)NC(=O)c5csc(n5)C3(CC2)NC(=O)[C@H](C)NC(=O)C(=C)NC(=O)[C@H](C)NC(=O)C([C@@H](C)CC)N[C@@H]2C=Cc3c(C(C)O)cc(nc3[C@H]2O)C(=O)OC4C)n1)C(N)=O (stereo not given in full)	> 50 µM (inactive)	–
CCN1CCN(C(=O)CCCN(c2ccccc2)S(C)(=O)=O)CC1	> 50 µM (inactive)	–
O=c1[nH]c(C2CCN(S(=O)(=O)c3ccc(S(=O)(=O)NC4CCCC4)cc3)CC2)nc2c1nnn2Cc1cccc(Cl)c1	> 50 µM (inactive)	–

Results, then the molecule that gave them:

IC50	pIC50	SMILES
–	4.60	O=C1CC(C(=O)Nc2ccccc2F)n2nc(-c3ccccc3)cc2N1 (stereo not given)
–	4.43	O=C(Nc1cccc(-c2noc(C3CCC3)n2)c1)C1CC(=O)N(c2ccccc2)C1 (stereo not given)
–	4.79	COc1ccc(CNC(=O)CN2C(=O)CC(c3ccccc3)=Nc3ccccc32)cc1
> 50 µM (inactive)	–	COc1ccc(Cl)cc1-n1nnc(C(=O)N2CCc3ccccc3C2)c1C
> 50 µM (inactive)	–	Cc1ccc(NC(=O)c2nnn(-c3ccccc3)n2)cc1F
> 50 µM (inactive)	–	COc1ccccc1C(=O)N1CCC(S(=O)(=O)c2ccc(-c3ccco3)cc2)CC1
–	4.65	COc1ccc(C(C(=O)NC2CCCCC2)N(C(=O)CCCC(=O)Nc2ccccn2)c2ccccc2C)cc1 (stereo not given)
> 50 µM (inactive)	–	COc1cc(NC(=O)COC(=O)Cn2cnc3ccccc32)cc(OC)c1
> 50 µM (inactive)	–	Cc1ccc2cc(CCNC(=O)c3cccc(Br)c3)c(=O)[nH]c2c1
> 50 µM (inactive)	–	O=C(NC1CCN(Cc2ccccc2)CC1)c1[nH]nc2c1COc1ccccc1-2
> 50 µM (inactive)	–	CC(=O)Nc1cccc(NC(=O)COc2cccc3ccc(N4CCCC4)nc23)c1
–	4.52	Cc1cc(N2CCC(NC(=O)NCc3ccc(F)cc3)C2=O)ccc1F (stereo not given)
> 50 µM (inactive)	–	COc1ccc(OC)c(NC(=O)CSc2nc(C)nc3c2oc2ccccc23)c1
> 50 µM (inactive)	–	COc1ccccc1CNC(=O)C1CCCN(c2nc3ccsc3c(=O)s2)C1 (stereo not given)
> 50 µM (inactive)	–	COc1ccccc1NC(=O)CSC1=NC2(CCCCC2)Nc2ccccc21
> 50 µM (inactive)	–	Cc1ccc(C(=O)NCc2ccc(C(=O)Nc3ccc(C)c(C)c3)o2)cc1
–	4.32	CC(C)c1ccc(C(C(=O)NC2CCCCC2)N(C(=O)c2cnccn2)c2cccc(F)c2)cc1 (stereo not given)
> 50 µM (inactive)	–	COc1ccc(CCNC(=O)c2cc(C3CC3)nc3c2cnn3C(C)C)cc1
> 50 µM (inactive)	–	COc1ccc(C(=O)CSc2nnc(-c3cccnc3)n2-c2ccccc2)cc1
> 50 µM (inactive)	–	O=C(COc1ccc(Cl)cc1)N1CCc2cc3ccccc3nc21
> 50 µM (inactive)	–	CCOC(=O)Nc1ccc(N2CCn3c(nc4ccccc43)C2)cc1OC
–	4.70	Cc1ccc(NC(=O)c2cnc3c(c2)c(=O)n(C)c(=O)n3C)cc1
> 50 µM (inactive)	–	CC(=O)c1cccc(NC(=O)c2ccc(CN(c3ccc(C)c(C)c3)S(C)(=O)=O)cc2)c1
> 50 µM (inactive)	–	COc1cccc(-n2cnc3cc(C(=O)NC4CC4)ccc3c2=O)c1
> 50 µM (inactive)	–	COCCCn1c(C(=O)NCCc2ccccc2)cc2c(=O)n3cccc(C)c3nc21
> 50 µM (inactive)	–	COc1ccc(CCNC(=O)c2c(N)n(-c3cccc(Cl)c3)c3nc4ccccc4nc23)cc1
> 50 µM (inactive)	–	CS(=O)(=O)N1CCc2cc(C(=O)Nc3ccc(Cc4ccncc4)cc3)ccc21
> 50 µM (inactive)	–	COc1ccc(/C=C/C(=O)N2CCc3ccccc32)cc1S(=O)(=O)N1CCOCC1
–	4.36	COC(=O)COc1ccc(/C=N/NC(=O)c2ccc(CN3CCc4ccccc4C3)cc2)cc1
